For this data set the following is noted: rat; liver microsomes; pH 7.4; 15.0 min; 1.0 µM. Background: Microsomes from liver hold many membrane-bound enzymes, among them those of drug oxidation.

The half-life is how long it takes for the measured level to halve.

`CCCCCn1c(CCCNC(=O)c2ccccc2OC)nc2ccccc21` gave a half-life of 1.31 min.
Then `O=C1CCc2cc(S(=O)(=O)Nc3ccc(F)c(Cl)c3)c(F)cc2N1`, with 16.8 min.
Then `c1coc(-c2nc3ccncc3[nH]2)c1`, with above 30 min; and `CCN(CC)[S+](=O)([O-])c1cc(NC(=O)c2[nH]c(C)c(C(C)=O)c2C)ccc1OC`, with 4.7 min; and `CCN(c1ccccc1)S(=O)(=O)c1cc(C(=O)Nc2ccc(Br)cc2)ccc1F`, with 1.5 min.
Then `O=C1CCCC2=C1C(c1[nH]ncc1Cl)N=C(Nc1nc3ccc(F)cc3o1)N2` (configuration not stated), with 14 min; and `Cc1cc(C)nc(NC(=S)N2CCN(c3cccc(OC(F)F)c3)CC2)c1`, with above 30 min; and `CN(C)CCCN1c2ccc(O)cc2Sc2ccc(Cl)cc21`, with 10.7 min.
The molecule `O=[S+]([O-])(Nc1ccc(N2CCNCC2)cc1)c1ccc(NCc2cccc(Cl)c2O)cc1` displayed a half-life above 30 min.
For `Cc1ccc(S(=O)(=O)Nc2cnccc2C(=O)NCc2ccccc2)cc1` the value was 5.9 min; for `O=C(Nc1ncc(Cc2ccc(C(F)(F)F)cc2)s1)c1ccco1`, above 30 min.
`O=C1CCCc2cc(S(=O)(=O)Nc3cnccc3C(=O)Nc3nc(-c4ccccc4)cs3)ccc2N1` registered a half-life above 30 min.
Then `CCn1c(SCc2ccc(C#N)cc2)nnc1-c1cccc(Cl)c1`, with 3 min; and `Cc1ccc(S(=O)(=O)Nc2ccc(Cl)cc2C(=O)Nc2nc(-c3ccccc3)cs2)cc1`, with 3.4 min.
In turn, `Cn1ccc2c(C(=O)NCC3CCC(=O)N3)nc(-c3ccccc3C#N)cc21` (configuration not stated) yielded a half-life of 21.9 min. This half-life is about 6.4-fold higher than that of the molecule before.
Then `O=C(Nc1nc(-c2ccccn2)cs1)c1cccc(-n2cnnn2)c1`, with above 30 min; and `Cc1ccc(OCCn2c(CCNC(=O)c3ccccc3Br)nc3ccccc32)cc1`, with 1.6 min.
Then `CCN(CC)S(=O)(=O)c1ccc(N2CCCC2)c(NS(=O)(=O)c2ccccc2)c1`, with 1.1 min.
Molecule `CCn1cc(C(=O)N2CCN(c3cccc(Cl)c3)CC2)c2cc(OC)c(OC)cc2c1=O` came in with a half-life of 7.12 min. This half-life lies about 6.5-fold higher than the previous one.
Regarding `O=C(O)c1ccnc2cc(C(OCCN3CCCCC3)c3ccccc3Cl)[nH]c12` (configuration not stated), the half-life is above 30 min.
Then `COc1ccccc1C(=O)NC1CCCc2c1[nH]c1c(Cl)cccc21` (configuration not stated), with 2.31 min.
For `Cc1ccc(NC(=O)NCC2CCN(Cc3cccc(Cl)c3)CC2)cc1Cl` the value was 14.1 min; for `FC(F)(F)Oc1cccc(Nc2nc(-c3ccncc3)nc3ccccc23)c1`, 19 min; for `CN(C)c1cccc(-c2nc(N3CCC(C(N)=O)CC3)ncc2F)c1`, 1.45 min.
Then `CC(=O)N1CCc2cc(S(=O)(=O)NCCC3=CCCCC3)ccc21`, with 1.3 min.
Molecule `Nc1cc2nc3ccccc3oc-2cc1=O` had a half-life of 8.63 min.
Then `Cc1nn(Cc2ccc(Cl)cc2)c(C)c1NC(=O)c1cc(-c2ccc3c(c2)OCO3)on1`, with 6.4 min; and `Cc1ccc(S(=O)(=O)Nc2cc(Cl)c(Cl)cc2C(=O)Nc2nc(-c3ccccc3)cs2)cc1`, with 13 min.
For `CCOC(=O)c1ccc(N2C(=O)c3n[nH]c(-c4cccs4)c3C2c2ccc(OCC)cc2)cc1` (configuration not stated) the value was 5.72 min; for `CC(=O)Nc1cc(-c2nc(Nc3ccc(F)c(F)c3)c3ccccc3n2)ccn1`, 12 min; for `O=C(O)CNC(=O)c1c(O)c2ccccc2n(Cc2ccccc2)c1=O`, 23.6 min.
Then `CC(C)(C)n1nc(-c2ccc(Cl)cc2)c2c(N)ncnc21`, with above 30 min; and `COc1ccc(NC(=O)c2cccnc2)cc1S(=O)(=O)Nc1ccc(Br)cc1`, with 21 min.
The molecule `Cc1ccnc(NC(=S)N2CCN(c3cc(Cl)cc(Cl)c3)CC2)c1` displayed a half-life above 30 min.
Then `COC(=O)[C@H](NC(=O)c1cc(-c2ccccc2)nc2ccccc12)c1ccccc1`, with 11 min; and `CCOC(=O)CCNc1cc(N2CCc3ccccc3CC2)nc(-c2cccnc2)n1`, with 2.31 min; and `C[C@@H]1C(=O)O[C@H]2[C@H]1CC[C@@]1(C)Cc3sc(NS(=O)(=O)Cc4ccccc4)nc3[C@@H](C)[C@H]21`, with 1.69 min.
Then `Fc1ccc(Nc2nc(-c3ccncc3)ncc2-c2ccccc2)cc1F`, with 27 min.
On to `COCCNS(=O)(=O)c1cc(-c2nn3c(C)nnc3c3ccccc23)ccc1C`, for which the half-life was 4.77 min.
In turn, `Fc1ccc(Nc2nc(-c3ccnc4ccccc34)nc3ccccc23)cc1F` returned a half-life of 27 min.
Then `C/C=C1/CN2CC[C@@]34c5ccccc5N(C)[C@@H]3[C@@H]2C[C@@H]1[C@H]4C(=O)OC`, with 4.13 min.
Then `CC(C)n1cc(-c2ccc3c(c2)N(C)CC3)c2c(NS(=O)(=O)c3ccn(C)n3)ccnc21`, with 1.07 min; and `Fc1cccc(CNc2nc(-c3ccccc3C(F)(F)F)nc3ccccc23)c1`, with 2.55 min; and `Cc1cc(C)c(CNC(=O)c2nc(-c3cccc(CO)c3)cc3c2ccn3C)c(=O)[nH]1`, with 8.11 min.
Then `Nc1ncc(S(=O)(=O)N2CCOCC2)s1`, with above 30 min; and `CC(C)(C)C(=O)N1CCN(c2nccc(Nc3ccccc3Cl)n2)CC1`, with 4.07 min; and `Cc1ccc(NC(=O)c2cc(S(=O)(=O)NCCC3=CCCCC3)ccc2F)cc1F`, with 2.07 min.
Turning to `Cc1ccc(S(=O)(=O)n2cc(C(=O)Nc3ccc(-c4ccccc4)cc3)c3ccccc32)cc1`, the half-life was 14 min. Compared with the last molecule, the half-life is about 6.8-fold higher.
`CCC(C)N(C)C(=O)c1cc2ccccc2c(-c2ccccc2Cl)n1` (configuration not stated): the half-life was found to be 3.84 min.
In turn, `Fc1cc(Nc2nc(-c3ccncc3)nc3ccccc23)ccc1-c1cccnc1` had a half-life of 17 min.
Then `NC(=O)C1CCN(c2ncc(Br)s2)CC1`, with above 30 min.
For `CC1=C(C(=O)Nc2ccccc2Cl)C(c2ccccc2Br)N=C(Nc2nc3ccccc3o2)N1` (configuration not stated) the value was above 30 min.
For `CCCSc1nc(N[C@@H]2C[C@H]2c2ccc(F)c(F)c2)c2nnn([C@@H]3C[C@H](OCCO)[C@@H](O)[C@H]3O)c2n1` the value was above 30 min; for `NC(=O)C1CCN(c2nc(-c3ccc(C(F)(F)F)cc3)cs2)CC1`, 5.39 min.
Consider `Cc1ccccc1C(=O)N1CCc2cc(-c3cccc(NC(=O)Cc4ccc5c(c4)OCO5)c3)ccc21`, for which the half-life was found to be 9.7 min.
Then `Ic1ccccc1CNC1C2CCN(CC2)C1C(c1ccccc1)c1ccccc1` (configuration not stated), with 8.51 min; and `O=C(Nc1cccc(C(F)(F)F)c1)c1ccccc1NC(=O)C1CCCCC1`, with 25 min.
For `O=C1C2=C(Nc3ccccc3SC2c2ccco2)c2ccccc21` (configuration not stated) the value was 4.01 min.
For `Cc1ccccc1-c1nc(NCc2cccs2)c2ccccc2n1` the value was 2.74 min; for `O=C(Nc1ccc(S(=O)(=O)Nc2ncc(-c3ccccc3)s2)cc1)c1ccc2ccccc2c1`, above 30 min.
Molecule `Fc1ccc(Nc2nc(-c3ccnc(N4CCCCC4)c3)nc3ccccc23)cc1F` registered a half-life of 26 min.
Then `COC(=N)c1nc2ccc3ncnc(Nc4ccc(F)cc4Br)c3c2s1`, with above 30 min; and `CCOc1ccc(NC(=O)CC2C(=O)N(c3ccc(F)cc3)C(=O)N2CCc2sccc2C)cc1` (configuration not stated), with 1.33 min.
The molecule `COCCCNC(=O)c1cc2cc(S(=O)(=O)N(C)C)ccc2n1C` yielded a half-life of 25 min.
For the molecule `CCN1CCN(C(=O)c2cc(-c3ccc(F)cc3)c3nncn3n2)CC1`, the half-life was above 30 min.
For `COc1ccc2[nH]c(=O)c(-c3noc(-c4ccccc4)n3)cc2c1` the value was above 30 min; for `CS(=O)(=O)c1ccc(-c2csc(N3CCC(C(N)=O)CC3)n2)cc1`, above 30 min; for `CCOC(=O)[C@H]1O[C@H]1C(=O)N[C@@H](CC(C)C)C(=O)NCCC(C)C`, 1.48 min.
For `COC[C@@H]1CN(C(=O)c2n[nH]c3ccccc23)C[C@H]1c1nc(C)no1` the value was above 30 min; for `COc1ccc(Nc2cc(C)nc(-n3nc(C)cc3C)n2)cc1Cl`, 17.7 min; for `CCOC(=O)c1ccc(N2C(=O)c3n[nH]c(-c4cccs4)c3C2c2ccc(Cl)cc2Cl)cc1` (configuration not stated), 20.1 min.
`Cc1cc(C)nc(N2CCCC(C(=O)NCCc3ccc(F)cc3)C2)n1` (configuration not stated) yielded a half-life of 1.6 min.
On to `CCOc1ccc(CCNC(=O)c2cc3ccncc3n2Cc2cccc(C)n2)cc1OCC`, for which the half-life came out at 29 min.
On to `COc1cccc(CNc2ccc(S(=O)(=O)Nc3ccc(N4CCNCC4)nc3)cc2)c1O`, for which the half-life is above 30 min.
For `N#C/C(=C\c1ccc(Sc2ccc(Cl)cc2)o1)c1nc2ccccc2[nH]1` the value was 7.56 min; for `O=[S+]([O-])(Nc1ccc(C2CCNCC2)cc1)c1ccc(NCc2ccc(Cl)cc2O)cc1`, above 30 min; for `CCOc1ccc(CCNC(=O)c2cc3ccccc3n2Cc2cccc(C)n2)cc1OCC`, 1.6 min.
For `O=C(O)c1c(Sc2ccccc2)c2cc(Cl)ccc2n1Cc1ccc(Cl)cc1` the value was 26.6 min; for `NC(=O)C(=O)N/N=C/c1ccc([N+](=O)[O-])o1`, above 30 min; for `CCc1cccc(NC(=O)CSc2nc3ccccc3nc2N2CCCCC2)c1`, 1.97 min.
Then `CCCCCn1cc2c(c1-c1ccc(Br)cc1)c(=O)n(C)c(=O)n2C`, with 6.39 min; and `CC(=O)C1CCN(c2ncc(-c3cccc(N(C)C)c3)s2)CC1`, with 2.51 min.
The molecule `CCOc1ccc(-c2cn3c(n2)sc2cc(C(=O)NCCCN(CC)CC)ccc23)cc1` returned a half-life above 30 min.
For the molecule `Cc1cccc(Nc2nc(NCc3ccco3)c3ccccc3n2)c1`, the half-life was found to be 3.54 min.
Take `Cc1ccc2c(c1)/C(=C\c1cc(Cl)c(O)c(Cl)c1)C(=O)N2`: the half-life was 22 min. This half-life lies about 6.2-fold higher than the previous one.
In turn, `Cc1ccc(-c2cc(C(=O)Nc3ccncc3)c3ccccc3n2)cc1` showed a half-life above 30 min.
Then `COc1cc(C(=S)N2CCN(CCO)CC2)ccc1OCc1ccc(C)cc1`, with 3.2 min; and `CCOC(=O)Nc1cc(-c2ccc(C)c(NS(C)(=O)=O)c2)nn2c(C)nnc12`, with above 30 min; and `COc1ccc(N(C)C(=O)c2cc3c(s2)-c2ccccc2OC3)cc1`, with 7.6 min.
Then `Cc1ccc(S(=O)(=O)Nc2cnccc2C(=O)Nc2nc(C3CCC3)cs2)cc1`, with 5 min; and `Cc1ccc(Cl)cc1NS(=O)(=O)c1cc2c(cc1F)NC(=O)CC2`, with 4.97 min.
For `Cc1cccc([C@H]2[C@@H]3C=CC[C@@H](C)[C@@H]3C(=O)N2Cc2ccccc2)c1` the value was 1.4 min.

For the origin of these results see PubChem BioAssay AID1508591.
